Where two headings read alike, the source gives them in different places.

Test [1] relates to lung tumor cell line A549. In words: Inhibition of tumor cell growth, A549. The test is classed as cell-based.
The test system of test [2] is fibrosarcoma HT1080. Briefly: Inhibition of tumor cell growth, HT1080. The test is classed as cell-based.
The target of test [3] is Cks1-Skp2 protein-protein interaction (Homo sapiens, UniProt P61024+Q13309). Briefly: Cks1-Skp2 protein-protein interaction ELISA. The test is classed as binding. From the text: In vitro binding of Skp2 to Cks1 was established in an ELISA assay format, with Cks1 protein immobilized on a 384-well plate and binding of Skp1/Skp2 to Cks1 detected by anti-Skp2 immunoreaction.
Sequence of Cks1-Skp2 protein-protein interaction (P61024 whole entry): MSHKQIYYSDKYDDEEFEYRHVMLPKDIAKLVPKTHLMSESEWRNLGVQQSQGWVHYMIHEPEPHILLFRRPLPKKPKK
Sequence of Cks1-Skp2 protein-protein interaction (Q13309 whole entry): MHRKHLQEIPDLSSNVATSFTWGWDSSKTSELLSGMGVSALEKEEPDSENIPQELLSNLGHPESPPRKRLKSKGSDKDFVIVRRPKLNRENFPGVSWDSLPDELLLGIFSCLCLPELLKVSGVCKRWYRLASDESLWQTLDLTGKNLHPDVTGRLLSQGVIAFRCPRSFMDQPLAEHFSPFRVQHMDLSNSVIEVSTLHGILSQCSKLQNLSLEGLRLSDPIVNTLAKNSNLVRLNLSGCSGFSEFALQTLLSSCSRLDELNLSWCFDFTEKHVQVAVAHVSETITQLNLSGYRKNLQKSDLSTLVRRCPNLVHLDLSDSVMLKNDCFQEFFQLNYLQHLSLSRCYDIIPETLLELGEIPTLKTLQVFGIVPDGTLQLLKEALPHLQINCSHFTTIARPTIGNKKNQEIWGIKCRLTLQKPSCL
In general terms: In an ELISA, binding on a coated surface is turned into a signal by an enzyme label.

The mark [4] stands for this setting: Table 3, read-out: IC50 Cks1-Skp2.
Setting [5] is: sulfonamide analogues, Table 2, read-out: Potency in the Cks1-Skp2 interaction assay.
The mark [6] stands for this setting: ELISA, Cks1 immobilized, Skp1/Skp2 binding detected by anti-Skp2, read-out: Cks1-Skp2 (μM), potency in the interaction assay.

In the case of `O=S(=O)(Nc1ccc(-c2cccnc2)c2cccnc12)c1cccnc1` [Compound 25, N-(5-(pyridin-3-yl)quinolin-8-yl)pyridine-3-sulfonamide], the IC50 in test [1] (Homo sapiens) came out at 5.24 µM; in test [2] (Homo sapiens, HT-1080), 1.07 µM; in test [3] (setting [4]), 1.67 µM; in test [3] (setting [5]) it was 1.67 µM.
In the case of `O=S(=O)(Nc1ccc(-c2ccccc2)c2cccnc12)c1cccnc1` [Compound 19, N-(5-phenylquinolin-8-yl)pyridine-3-sulfonamide], the IC50 in test [3] (setting [5]) was 2.2 µM.
The same measure, in the same setting: to `CC(=O)Nc1ccc(S(=O)(=O)Nc2ccc(-c3ccncc3)c3cccnc23)cc1` [Compound 31, N-(4-(N-(5-(pyridin-4-yl)quinolin-8-yl)sulfamoyl)phenyl)acetamide] belongs 6.55 µM.
As for `O=S(=O)(Nc1ccc(-c2cccnc2)c2cccnc12)c1cccc(C(F)(F)F)c1` [Compound 24, N-(5-(pyridin-3-yl)quinolin-8-yl)-3-(trifluoromethyl)benzenesulfonamide], the IC50 in test [1] (Homo sapiens) turned out to be 0.91 µM; in test [2] (Homo sapiens, HT-1080), 0.4 µM; in test [3] (setting [4]), 0.17 µM; in test [3] (setting [5]), 0.17 µM.
Turning to `Cc1ccc(S(=O)(=O)Nc2ccc(Br)c3cccnc23)cc1` [Compound 1, N-(5-bromoquinolin-8-yl)-4-methylbenzenesulfonamide], the IC50 in test [3] (setting [6]) is 0.84 µM.
As to `O=S(=O)(Nc1ccc(-c2ccncc2)c2cccnc12)C1CC1` [Compound 28, N-(5-(pyridin-4-yl)quinolin-8-yl)cyclopropanesulfonamide], in test [3] (setting [5]), the IC50 was determined as 10.9 µM.
Same read-out and setting: to `O=S(=O)(Nc1ccc(-c2ccccc2)c2cccnc12)c1cccc(C(F)(F)F)c1` [Compound 18, N-(5-phenylquinolin-8-yl)-3-(trifluoromethyl)benzenesulfonamide] belongs 6.7 µM.
Consider `COc1ccc(Oc2cc(NS(=O)(=O)c3ccc(C)cc3)c3ncccc3c2)cc1` [Compound 13, N-(6-(4-methoxyphenoxy)quinolin-8-yl)-4-methylbenzenesulfonamide], for which the IC50 in test [1] is 4.09 µM; in test [2], 0.74 µM; in test [3] (setting [6]), 1.15 µM; in test [3] (setting [4]), 1.15 µM.
Regarding “4-methoxy-N-(5-(pyridin-3-yl)quinolin-8-yl)benzenesulfonamide [Compound 29]”, the IC50 in test [1] amounted to 3.06 µM; in test [2] it was 1.32 µM; in test [3] (setting [4]), 2.45 µM; in test [3] (setting [5]), 2.45 µM.
On to `O=S(=O)(Nc1ccc(-c2ccccc2)c2cccnc12)C1CC1` [Compound 16, N-(5-phenylquinolin-8-yl)cyclopropanesulfonamide], for which the IC50 in test [3] (setting [5]) worked out at 12.1 µM.
With “4-methoxy-N-(5-(pyridin-4-yl)quinolin-8-yl)benzenesulfonamide [Compound 23]”, the IC50 in test [1] worked out at 1.24 µM; in test [2] it was 0.44 µM; in test [3] (setting [4]) it was 0.58 µM; in test [3] (setting [5]) it was 0.58 µM.
With `O=S(=O)(Nc1ccc(-c2cccnc2)c2cccnc12)C1CC1` [Compound 22, N-(5-(pyridin-3-yl)quinolin-8-yl)cyclopropanesulfonamide], in test [3] (setting [5]), the IC50 turned out to be 7.16 µM.
The same measure, in the same setting: to `CC(=O)Nc1ccc(S(=O)(=O)Nc2ccc(-c3ccccc3)c3cccnc23)cc1` [Compound 20, N-(4-(N-(5-phenylquinolin-8-yl)sulfamoyl)phenyl)acetamide] belongs 7.6 µM.
For `Cc1ccc(S(=O)(=O)Nc2ccc(-c3ccsc3)c3cccnc23)cc1` [Compound 7, 4-methyl-N-(5-(thiophen-3-yl)quinolin-8-yl)benzenesulfonamide], the IC50 in test [1] (Homo sapiens) came to 2.36 µM; in test [2] (Homo sapiens, HT-1080) it was 0.64 µM; in test [3] (setting [6]), 5.54 µM; in test [3] (setting [4]) it was 5.54 µM.
For the compound `Cc1ccc(S(=O)(=O)Nc2cc(Oc3cc(F)cc(F)c3)cc3cccnc23)cc1` [Compound 12, N-(6-(3,5-difluorophenoxy)quinolin-8-yl)-4-methylbenzenesulfonamide], the IC50 was found to be 4.11 µM in test [1], 0.08 µM in test [2], 3.57 µM in test [3] (setting [6]) and 3.57 µM in test [3] (setting [4]).
For the compound `O=S(=O)(Nc1ccc(-c2ccncc2)c2cccnc12)c1cccnc1` [Compound 30, N-(5-(pyridin-4-yl)quinolin-8-yl)pyridine-3-sulfonamide], the IC50 in test [1] (Homo sapiens) came to 5.88 µM; in test [2] (Homo sapiens, HT-1080) it was 1.07 µM; in test [3] (setting [4]), 1.21 µM; in test [3] (setting [5]), 1.21 µM.
`Cc1ccc(S(=O)(=O)Nc2ccc(-c3cc4ccccc4s3)c3cccnc23)cc1` [Compound 8, N-(5-(benzo[b]thiophen-2-yl)quinolin-8-yl)-4-methylbenzenesulfonamide]: the IC50 is 0.39 µM in test [1] (Homo sapiens); 0.15 µM in test [2] (Homo sapiens, HT-1080); 7.84 µM in test [3] (setting [6]); 7.84 µM in test [3] (setting [4]).
In the case of `CS(=O)(=O)Nc1ccc(-c2cccnc2)c2cccnc12` [Compound 21, N-(5-(pyridin-3-yl)quinolin-8-yl)methanesulfonamide], in test [3] (setting [5]), the IC50 turned out to be 15.1 µM.
Regarding `Cc1ccc(S(=O)(=O)Nc2ccc(-c3ccccc3)c3cccnc23)cc1` [Compound 4, 4-methyl-N-(5-phenylquinolin-8-yl)benzenesulfonamide], the IC50 stood at 2.36 µM in test [1] (Homo sapiens); 1.64 µM in test [2] (Homo sapiens, HT-1080); 0.54 µM in test [3] (setting [6]); 0.54 µM in test [3] (setting [4]).
With `Cc1ccc(S(=O)(=O)Nc2cc(Oc3cccc(C#N)c3)cc3cccnc23)cc1` [Compound 14, N-(6-(3-cyanophenoxy)quinolin-8-yl)-4-methylbenzenesulfonamide], the IC50 was determined as 6.48 µM in test [1], 6.83 µM in test [2], 1.74 µM in test [3] (setting [6]) and 1.74 µM in test [3] (setting [4]).
As to `CS(=O)(=O)Nc1ccc(-c2ccccc2)c2cccnc12` [Compound 15, N-(5-phenylquinolin-8-yl)methanesulfonamide], in test [3] (setting [5]), the IC50 was 2.2 µM.
In the case of `COc1ccc(S(=O)(=O)Nc2ccc(-c3ccccc3)c3cccnc23)cc1` [Compound 17, 4-methoxy-N-(5-phenylquinolin-8-yl)benzenesulfonamide], the IC50 in test [3] (setting [5]) amounted to 8.02 µM.
Take `Cc1ccc(S(=O)(=O)Nc2ccc(-c3cccnc3)c3cccnc23)cc1` [Compound 6, 4-methyl-N-(5-(pyridin-3-yl)quinolin-8-yl)benzenesulfonamide]: the IC50 in test [1] (Homo sapiens) stood at 6.02 µM; in test [2] (Homo sapiens, HT-1080) it was 4.22 µM; in test [3] (setting [6]), 1.73 µM; in test [3] (setting [4]), 1.73 µM.
For `Cc1ccc(S(=O)(=O)Nc2ccc(-c3ccco3)c3cccnc23)cc1` [Compound 5, N-(5-(furan-2-yl)quinolin-8-yl)-4-methylbenzenesulfonamide], the IC50 turned out to be 26 µM in test [1] (Homo sapiens); 9.78 µM in test [2] (Homo sapiens, HT-1080); 0.55 µM in test [3] (setting [6]); 0.55 µM in test [3] (setting [4]).
Turning to `CC(=O)Nc1ccc(S(=O)(=O)Nc2ccc(-c3cccnc3)c3cccnc23)cc1` [Compound 26, N-(4-(N-(5-(pyridin-3-yl)quinolin-8-yl)sulfamoyl)phenyl)acetamide], the IC50 in test [3] (setting [5]) amounted to 14.5 µM.

Values taken from patent US10040766B2, “Ubiquitination inhibitors” (Rigel Pharmaceuticals, Inc., priority 2014, dated 2018).
